Test results from ChEMBL document CHEMBL5653631, “A Potent and Selective ULK1 Inhibitor Suppresses Autophagy and Sensitizes Cancer Cells to Nutrient Stress” (iScience, 2018).
Each block holds one compound with its values, some of them ahead of it.

Legend:
[1] = molecular target: T1, NUAK family SNF1-like kinase 1 (Homo sapiens) (UniProt O60285); experiment: Inhibition of human recombinant NuaK1 at 500 nM related to control ULK1
T1 sequence (whole entry): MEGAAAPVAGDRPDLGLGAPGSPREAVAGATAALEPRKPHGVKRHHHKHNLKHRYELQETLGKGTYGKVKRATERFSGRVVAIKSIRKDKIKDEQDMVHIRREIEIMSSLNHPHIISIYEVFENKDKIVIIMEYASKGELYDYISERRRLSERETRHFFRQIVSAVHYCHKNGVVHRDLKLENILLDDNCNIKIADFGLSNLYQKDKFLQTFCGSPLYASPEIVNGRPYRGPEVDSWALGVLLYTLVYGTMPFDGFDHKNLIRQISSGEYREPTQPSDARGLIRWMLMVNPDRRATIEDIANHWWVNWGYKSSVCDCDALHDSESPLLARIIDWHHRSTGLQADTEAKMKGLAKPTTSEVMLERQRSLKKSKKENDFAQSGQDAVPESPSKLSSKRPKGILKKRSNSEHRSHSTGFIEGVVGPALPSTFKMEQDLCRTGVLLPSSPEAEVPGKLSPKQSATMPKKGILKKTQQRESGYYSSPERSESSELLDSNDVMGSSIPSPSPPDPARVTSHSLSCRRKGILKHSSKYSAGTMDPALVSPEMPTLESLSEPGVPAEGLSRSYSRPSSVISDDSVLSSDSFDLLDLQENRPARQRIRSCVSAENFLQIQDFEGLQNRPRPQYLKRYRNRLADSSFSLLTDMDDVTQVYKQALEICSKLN

[2] = molecular target: T2, Serine/threonine-protein kinase tousled-like 1 (Homo sapiens) (UniProt Q9UKI8); experiment: Inhibition of human recombinant TLK1 at 500 nM related to control ULK1
T2 sequence (whole entry): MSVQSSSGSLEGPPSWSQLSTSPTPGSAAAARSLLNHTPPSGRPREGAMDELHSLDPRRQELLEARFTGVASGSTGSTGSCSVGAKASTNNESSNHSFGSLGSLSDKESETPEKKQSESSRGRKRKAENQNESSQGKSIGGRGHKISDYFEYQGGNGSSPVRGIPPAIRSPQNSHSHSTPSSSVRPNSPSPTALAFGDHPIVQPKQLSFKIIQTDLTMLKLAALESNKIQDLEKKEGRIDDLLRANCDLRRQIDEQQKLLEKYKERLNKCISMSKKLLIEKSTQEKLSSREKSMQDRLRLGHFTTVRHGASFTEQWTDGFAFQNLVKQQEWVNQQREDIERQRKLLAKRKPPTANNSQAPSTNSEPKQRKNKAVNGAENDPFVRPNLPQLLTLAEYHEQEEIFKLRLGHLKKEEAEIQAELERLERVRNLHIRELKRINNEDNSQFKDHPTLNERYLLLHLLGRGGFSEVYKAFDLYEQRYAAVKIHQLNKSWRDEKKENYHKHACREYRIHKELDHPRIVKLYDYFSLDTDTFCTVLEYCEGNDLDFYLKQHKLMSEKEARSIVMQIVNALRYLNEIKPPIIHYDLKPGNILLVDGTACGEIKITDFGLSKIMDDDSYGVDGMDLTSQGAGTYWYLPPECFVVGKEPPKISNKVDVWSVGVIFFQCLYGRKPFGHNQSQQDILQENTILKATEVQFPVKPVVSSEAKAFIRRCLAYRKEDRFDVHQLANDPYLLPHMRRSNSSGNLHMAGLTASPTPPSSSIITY

Homo sapiens = species: Homo sapiens; experiment: Inhibition of human recombinant CK1d at 500 nM related to control ULK1
[3] = molecular target: Protein kinase C alpha type (Homo sapiens) (UniProt P17252); experiment: Inhibition of human recombinant PKCa at 40 nM related to control ULK1
[4] = molecular target: T3, Ephrin type-B receptor 3 (Homo sapiens) (UniProt P54753); experiment: Inhibition of human recombinant EphB3 at 15 nM related to control ULK1
T3 sequence (whole entry): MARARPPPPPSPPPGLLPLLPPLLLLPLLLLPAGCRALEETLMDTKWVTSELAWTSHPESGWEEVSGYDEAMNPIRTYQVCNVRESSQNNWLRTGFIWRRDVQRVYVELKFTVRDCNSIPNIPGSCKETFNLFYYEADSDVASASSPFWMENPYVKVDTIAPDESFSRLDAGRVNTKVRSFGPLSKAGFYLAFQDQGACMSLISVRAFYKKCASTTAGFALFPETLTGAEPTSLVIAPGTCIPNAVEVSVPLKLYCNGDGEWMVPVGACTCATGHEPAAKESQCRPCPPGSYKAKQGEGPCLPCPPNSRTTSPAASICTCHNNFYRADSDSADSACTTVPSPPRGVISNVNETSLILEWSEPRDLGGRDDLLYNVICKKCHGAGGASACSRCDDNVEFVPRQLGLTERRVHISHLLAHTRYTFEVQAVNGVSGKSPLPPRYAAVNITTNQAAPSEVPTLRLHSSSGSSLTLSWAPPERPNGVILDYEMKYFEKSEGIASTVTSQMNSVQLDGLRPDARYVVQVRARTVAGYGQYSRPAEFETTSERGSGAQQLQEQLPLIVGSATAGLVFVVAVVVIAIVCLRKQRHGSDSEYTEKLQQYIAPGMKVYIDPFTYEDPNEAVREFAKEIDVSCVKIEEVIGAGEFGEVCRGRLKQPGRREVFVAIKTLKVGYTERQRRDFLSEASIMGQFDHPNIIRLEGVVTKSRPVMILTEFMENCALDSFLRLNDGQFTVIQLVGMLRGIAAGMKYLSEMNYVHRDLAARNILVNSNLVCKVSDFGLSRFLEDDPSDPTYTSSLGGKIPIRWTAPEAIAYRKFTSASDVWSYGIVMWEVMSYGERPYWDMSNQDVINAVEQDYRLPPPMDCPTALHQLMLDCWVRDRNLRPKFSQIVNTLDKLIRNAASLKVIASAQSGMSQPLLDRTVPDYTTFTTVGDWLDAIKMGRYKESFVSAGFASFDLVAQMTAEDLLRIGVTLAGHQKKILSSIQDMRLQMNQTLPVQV

[5] = molecular target: Dual specificity tyrosine-phosphorylation-regulated kinase 1A (Homo sapiens) (UniProt Q13627); experiment: Inhibition of human recombinant DYRK1A at 15 nM related to control ULK1
[6] = molecular target: Death-associated protein kinase 3 (Homo sapiens) (UniProt O43293); experiment: Inhibition of human recombinant DAPK3 at 15 nM in presence of ATP by radiometric assay relative to control
Sequence of Death-associated protein kinase 3 (Homo sapiens) (O43293 whole entry, looked up): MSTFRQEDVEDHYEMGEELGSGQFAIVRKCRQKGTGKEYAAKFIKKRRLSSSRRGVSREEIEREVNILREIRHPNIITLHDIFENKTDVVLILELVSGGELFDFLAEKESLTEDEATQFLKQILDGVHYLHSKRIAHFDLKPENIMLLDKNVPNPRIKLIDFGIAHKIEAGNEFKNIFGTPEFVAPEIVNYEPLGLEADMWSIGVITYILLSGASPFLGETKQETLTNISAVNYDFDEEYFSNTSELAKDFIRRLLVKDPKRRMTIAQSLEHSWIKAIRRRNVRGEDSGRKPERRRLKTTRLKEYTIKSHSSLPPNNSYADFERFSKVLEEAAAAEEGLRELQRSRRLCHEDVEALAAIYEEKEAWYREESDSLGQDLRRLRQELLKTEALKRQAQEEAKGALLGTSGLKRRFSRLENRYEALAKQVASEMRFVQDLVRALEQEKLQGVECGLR

- fold change (FC) [1]: 0.96
- fold change (FC) [2]: 0
- fold change (FC) (Homo sapiens): 0.14
Structure (SMILES): CNC(=O)c1ccccc1Oc1nc(Nc2cc(OC)c(OC)c(OC)c2)ncc1Br

- fold change (FC) [3]: 0
Structure (SMILES): O=C(N[C@@H](C1CC1)C(F)(F)F)c1cc(-c2cnn3cc(-c4ccc(F)cc4)cnc23)cs1

- fold change (FC) [4]: 0
- fold change (FC) [5]: 0.83
Structure (SMILES): CC(C)[C@H](NC(=O)c1cc(-c2cnn3cc(-c4ccc(OCCN5CCCCC5)cc4)cnc23)cs1)C(F)(F)F
- inhibition [6]: 0%
